Values joined by “and” are separate entries in the source; they are usually repeats but may differ in a detail not shown here. Identical values can stand only once.
Experiments:
REF-neo cells = test: Effect of sodium orthovanadate on proliferation of control cells (cell count); assay type: cell-based, Fischer rat; conditions: 10% FCS
Procedure: (§1) 1. Cells were grown on 5 cm petri dishes in DME medium with 10% FCS for 48 h. After 48 h of growth, each dish of α-7, α-21, and α-29 cells contained about 0.4 x 10^5 to 0.6 x 10^5 cells, and each dish of REF-neo cells contained 1.8 x 10^5 cells. The medium was discarded, and fresh medium containing 10% FCS and the indicated concentration (below) of sodium orthovanadate was added to the cells. After 48 h of culture in this medium the cells from two replicate dishes were harvested and counted. […]
(§2) 2. Cells (control cells = REF-neo, PTPα-overexpressing cells = α-21) were grown on 5 cm petri dishes in DME medium with 10% FCS for 48 h. The medium was discarded, and fresh medium containing 10% FCS and the indicated concentration (below) of sodium orthovanadate was added to the cells. After 72 h of culture in this medium the cells from two replicate dishes were harvested and counted. The results are shown in Table 3 below and are essentially the same as in 1 above.

α-29 cells = test: Effect of sodium orthovanadate on proliferation of PTPα-overexpressing cells (cell count); assay type: cell-based, Fischer rat; conditions: 10% FCS, 48 h
Procedure: as §1

α-7 cells = test: as above; assay type: cell-based, Fischer rat; conditions: 10% FCS, 48 h
Procedure: as §1

α-21 cells [1] = test: as above; assay type: cell-based, Fischer rat; conditions: for cell count, set #3 / cell count, set #2 (+0.1% FCS) / Number of cells/5 cm dish / cell count, set #1 (+10% FCS): α-21; for cell count, set #3 / Number of cells/5 cm dish / cell count, set #1 (+10% FCS): 10% FCS; for cell count, set #3: then another 48 h in 10% FCS without vanadate
Procedure: as §1, §2
3. PTPα-overexpressing cells (α-21) were grown for 48 h (to about 60% confluency) in DME medium containing 10% FCS. The medium was removed and replaced with medium containing the indicated concentration of sodium orthovanadate (below) and either 10% (sets #1 and #3) or 0.1% FCS (set #2). The cells were cultured for 48 h and counted (sets #1 and 2), or the medium was removed from set #3 and replaced with medium containing 10% FCS without sodium orthovanadate and cultured for another 48 h before counting. […]

α-21 cells [2] = test: Colony forming ability in soft agar in the presence of sodium orthovanadate; assay type: cell-based, Fischer rat; conditions: 9 days
Procedure: The α-21 cells were grown in soft agar in the presence of the indicated concentration of sodium orthovanadate (below) on duplicate dishes. After 9 days the colonies were counted on each dish and the approximate size of the colonies noted. […]

[3] = test system: REF α-21 PTPα-overexpressing cells; test: Tumourigenesis by REF α-21 cells grown and injected with vanadate; assay type: in vivo, nude mice
Procedure: The α-21 cells were grown in DME medium containing 10% FCS and then in DME medium with 0.1% FCS in the presence of 50 µM sodium orthovanadate for 48 h. The cells were then harvested by trypsinisation, centrifuged to pellet the cells, and the cell pellet resuspended in DME containing 50 µM sodium orthovanadate. Other α-21 cells were grown and prepared in a similar manner, except in the absence of sodium orthovanadate throughout. The resuspended cells (plus or minus vanadate) were subcutaneously injected into nude mice (2 x 10^6 cells/mouse, 4 mice for each treatment), and nine days later the tumour size was measured.

Compound: [Na+].[Na+].[Na+].[O]=[V]([O-])([O-])[O-] [Vanadate, sodium orthovanadate]
- Number of cells/5 cm dish (REF-neo cells; vanadate 5 µM, 48 h): 1.10 x 10^6 cells/5 cm dish
- Number of cells/5 cm dish (REF-neo cells; vanadate 5 µM, 72 h): 1.90 x 10^6 cells/5cm dish
- Number of cells/5 cm dish (REF-neo cells; vanadate 30 µM, 48 h): 1.04 x 10^6 cells/5 cm dish
- Number of cells/5 cm dish (REF-neo cells; vanadate 30 µM, 72 h): 1.80 x 10^6 cells/5cm dish
- Number of cells/5 cm dish (REF-neo cells; vanadate 60 µM, 48 h): 9.90 x 10^5 cells/5 cm dish
- Number of cells/5 cm dish (REF-neo cells; vanadate 60 µM, 72 h): 1.60 x 10^6 cells/5cm dish
- Number of cells/5 cm dish (REF-neo cells; vanadate 120 µM, 48 h): 7.60 x 10^5 cells/5 cm dish
- Number of cells/5 cm dish (REF-neo cells; vanadate 120 µM, 72 h): 6.70 x 10^5 cells/5cm dish
- Number of cells/5 cm dish (α-29 cells; vanadate 5 µM): 1.62 x 10^6 cells/5 cm dish
- Number of cells/5 cm dish (α-29 cells; vanadate 30 µM): 7.20 x 10^5 cells/5 cm dish
- Number of cells/5 cm dish (α-29 cells; vanadate 60 µM): 4.70 x 10^5 cells/5 cm dish
- Number of cells/5 cm dish (α-29 cells; vanadate 120 µM): 2.10 x 10^5 cells/5 cm dish
- Number of cells/5 cm dish (α-7 cells; vanadate 5 µM): 1.72 x 10^6 cells/5 cm dish
- Number of cells/5 cm dish (α-7 cells; vanadate 30 µM): 1.41 x 10^6 cells/5 cm dish
- Number of cells/5 cm dish (α-7 cells; vanadate 60 µM): 1.18 x 10^6 cells/5 cm dish
- Number of cells/5 cm dish (α-7 cells; vanadate 120 µM): 5.80 x 10^5 cells/5 cm dish
- toxicity to α-21 cells (resumption of proliferation once vanadate is removed) (α-21 cells [1]; comparison of cell numbers in sets #1 and 3): not irreversibly toxic
- cell count, set #3 (α-21 cells [1]; vanadate 5 µM, 48 h): 2.90 x 10^6
- cell count, set #2 (+0.1% FCS) (α-21 cells [1]; vanadate 5 µM, 48 h): 1.18 x 10^6
- Number of cells/5 cm dish (α-21 cells [1]; vanadate 5 µM, 48 h): 1.42 x 10^6 cells/5 cm dish
- cell count, set #1 (+10% FCS) (α-21 cells [1]; vanadate 5 µM, 48 h): 1.30 x 10^6
- Number of cells/5 cm dish (α-21 cells [1]; vanadate 5 µM, 72 h): 1.20 x 10^6 cells/5cm dish
- cell count, set #3 (α-21 cells [1]; vanadate 30 µM, 48 h): 1.46 x 10^6
- cell count, set #2 (+0.1% FCS) (α-21 cells [1]; vanadate 30 µM, 48 h): 5.40 x 10^5
- Number of cells/5 cm dish (α-21 cells [1]; vanadate 30 µM, 48 h): 7.00 x 10^5 cells/5 cm dish
- cell count, set #1 (+10% FCS) (α-21 cells [1]; vanadate 30 µM, 48 h): 5.00 x 10^5
- Number of cells/5 cm dish (α-21 cells [1]; vanadate 30 µM, 72 h): 4.80 x 10^5 cells/5cm dish
- cell count, set #3 (α-21 cells [1]; vanadate 60 µM, 48 h): 9.60 x 10^5
- cell count, set #2 (+0.1% FCS) (α-21 cells [1]; vanadate 60 µM, 48 h): 3.80 x 10^5
- Number of cells/5 cm dish (α-21 cells [1]; vanadate 60 µM, 48 h): 3.70 x 10^5 cells/5 cm dish
- cell count, set #1 (+10% FCS) (α-21 cells [1]; vanadate 60 µM, 48 h): 3.20 x 10^5
- Number of cells/5 cm dish (α-21 cells [1]; vanadate 60 µM, 72 h): 2.60 x 10^5 cells/5cm dish
- cell count, set #3 (α-21 cells [1]; vanadate 120 µM, 48 h): 5.20 x 10^5
- cell count, set #2 (+0.1% FCS) (α-21 cells [1]; vanadate 120 µM, 48 h): 2.00 x 10^5
- Number of cells/5 cm dish (α-21 cells [1]; vanadate 120 µM, 48 h): 1.60 x 10^5 cells/5 cm dish
- cell count, set #1 (+10% FCS) (α-21 cells [1]; vanadate 120 µM, 48 h): 1.80 x 10^5
- Number of cells/5 cm dish (α-21 cells [1]; vanadate 120 µM, 72 h): 1.76 x 10^5 cells/5cm dish
- Number of colonies Average (α-21 cells [2]; vanadate 5 µM): 1260
- Number of colonies Exp 1 (α-21 cells [2]; vanadate 5 µM): 1127
- Number of colonies Exp 2 (α-21 cells [2]; vanadate 5 µM): 1392
- Number of colonies Average (α-21 cells [2]; vanadate 10 µM): 1196
- Number of colonies Exp 1 (α-21 cells [2]; vanadate 10 µM): 1458
- Number of colonies Exp 2 (α-21 cells [2]; vanadate 10 µM): 934
- Number of colonies Average (α-21 cells [2]; vanadate 20 µM): 667
- Number of colonies Exp 1 (α-21 cells [2]; vanadate 20 µM): 692
- Number of colonies Exp 2 (α-21 cells [2]; vanadate 20 µM): 641
- Number of colonies Average (α-21 cells [2]; vanadate 40 µM): 292
- Number of colonies Exp 1 (α-21 cells [2]; vanadate 40 µM): 312
- Number of colonies Exp 2 (α-21 cells [2]; vanadate 40 µM): 271
- Number of colonies Average (α-21 cells [2]; vanadate 80 µM): 82
- Number of colonies Exp 1 (α-21 cells [2]; vanadate 80 µM): 90
- Number of colonies Exp 2 (α-21 cells [2]; vanadate 80 µM): 73
- average tumour size ([3]; 4 mice, α-21 cells grown and injected with 50 µM sodium orthovanadate, nine days later): 0.618 cm^2
- tumour size ([3]; individual mice, α-21 cells grown and injected with 50 µM sodium orthovanadate, subcutaneous, 2 x 10^6 cells/mouse, nine days later): 0.30 x 0.8 cm = 0.24 cm^2 and 0.70 x 1.5 cm = 1.05 cm^2 and 0.40 x 0.7 cm = 0.28 cm^2 and 0.75 x 1.2 cm = 0.90 cm^2
- tumours smaller than those arising from cells grown and injected in the absence of vanadate ([3]; on average, 50 µM sodium orthovanadate, nine days): 2.6 times

— patent publication EP0648123B1, “INHIBITORS OF PROTEIN TYROSINE-PHOSPHATASE $g(a) FOR TREATMENT OF TUMORS” (NATIONAL UNIVERSITY OF SINGAPORE, priority 1992, dated 1994)
